Where “and” joins values, the source holds several entries; their conditions need not be identical. Identical values can stand only once. Entries after “also recorded” stand apart in the source; their conditions may differ. Like-named read-outs stand apart in the source and are kept apart here. Numbered stars: 1 amine (or outer) side, 2 acyl side, 3 side chain; on linkers, the order of the positions; unused ones are H or OH. Bridge positions count the residues as written; N and C are the ends. Square brackets hold non-standard residues; d marks the D form. Peptide text beside a SMILES is read from it. * marks the point of attachment. ξ: configuration not given here. Lys(5-FITC)NH2 = NC(=O)[C@H](CCCCNC(=S)Nc1ccc2c(c1)C(=O)OC21c2ccc(O)cc2Oc2cc(O)ccc21)N*; FITC = O=C1OC2(c3ccc(O)cc3Oc3cc(O)ccc32)c2ccc(NC(=S)*)cc21; dβ3h(hPhe) = O=C(C[C@@H](CCc1ccccc1)N[*:1])[*:2]; Phe(4-F) = N[C@@H](Cc1ccc(F)cc1)C(=O)O; d2Nal = N[C@H](Cc1ccc2ccccc2c1)C(=O)O; Benzoyl(3-Br) = O=C(c1cccc(Br)c1)*; Benzoyl(3-Cl) = O=C(c1cccc(Cl)c1)*; X1 = CC(C)(CO[*:2])C(=O)C(=O)[*:1]; ξ2Nal = NC(Cc1ccc2ccccc2c1)C(=O)O; Tle = CC(C)(C)[C@H](N)C(=O)O; dNle = CCCC[C@@H](N)C(=O)O; Dap = NC[C@H](N)C(=O)O; ξPip = O=C(O)C1CCCCN1
Legend:
[1] = inability to cross the cell membrane; cited from earlier work
[2] = tested on: phosphorylation of Akt, Mek and Erk in A549 cells; assay: Western blot of Ras signaling in A549 cells; format: cell-based; conditions: 10 μM, 10 min
A549 cells [3] = assay: Cellular uptake of FITC-labeled peptides (live-cell confocal microscopy, FACS); conditions: for cell permeability relative to earlier peptides: Gln8 replaced with L- or D-arginine
EGFR phosphorylation = assay: IP/Western blot of EGFR phosphorylation; format: cell-based; conditions: 13 μM
From the text: (§1) Two well characterized Ras effector pathways are the Raf-Mek-Erk and PI3K-Akt signaling pathways (Karnoub, A. E. et al. (2008) Nat Rev. Mol. Cell Biol. 9:517). To determine whether the cyclic peptides inhibited the intracellular Ras activity, Applicants monitored the phosphorylation levels of Mek, Erk, and Akt in cells before and after treatment with the Ras inhibitors. […] In order to rule out that the observed downregulation of P-Mek, P-Erk and P-Akt is caused by inhibition of EGFR signaling, the effect of Cyclosrasin 9A5 on the phosphorylation of the EGFR was tested by performing an IP/Western Blot experiment (FIG. 3E). Active, signaling EGFR is highly autohophosphorylated.

[4] = tested on: phosphorylation of Akt, Mek and Erk in H1299 cells; assay: Western blot of Ras signaling (Akt, Mek, Erk phosphorylation) in H1299 cells; format: cell-based
From the text: as §1
(§2) In the MTT assay, A549 cells were also found to be more resistant to the Ras inhibitors than other cell lines.

[5] = target: T1, K-Ras / Raf RBD interaction (Homo sapiens, UniProt P01116, G12V); assay: HTRF assay, inhibition of Ras-Raf RBD interaction; format: binding;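 note: HTRF signal read after overnight incubation of the assay plate at 4 °C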
T1 construct: The G12V mutant K-Ras (amino acids 1-185) was recombinantly fused; GST (N, cleaved yes); made in house; host or cells: Escherichia coli BL21
T1 sequence (P01116 1-185 isoform P01116-2 G12V): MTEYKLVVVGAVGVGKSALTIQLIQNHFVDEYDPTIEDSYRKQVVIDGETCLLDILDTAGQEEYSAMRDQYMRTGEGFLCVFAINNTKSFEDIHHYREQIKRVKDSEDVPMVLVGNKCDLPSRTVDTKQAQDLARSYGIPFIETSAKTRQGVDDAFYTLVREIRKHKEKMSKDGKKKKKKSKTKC
Method: Recombinant HA-tagged K-Ras (no GST, 50 nM), GST-Raf RBD (50 nM each), a monoclonal anti-HA antibody labeled with acceptor d2 (2 μg/mL), a monoclonal anti-GST antibody labeled with donor Tb (0.25 μg/mL) (Cisbio), and increasing concentrations of cyclic peptide (0-20 μM) were mixed inPBS (total volume of 20 μL) in a 384-well plate. The plate was incubated overnight at 4° C. and the HTRF signal was measured on a Molecular Devices Spectramax M5 or a Tecan infinite M1000 Pro plate reader. The data were analyzed by Prism 6.0 from Graphpad Software, Inc. (La Jolla, Calif.) and IC50 values were obtained by fitting the data to dose-response-inhibition curve.

[6] = tested on: actin filaments in A549 cells; assay: Actin filament staining (phalloidin-FITC) by confocal microscopy; format: cell-based; conditions: 10 μM, 15 min
From the text: The inhibition of Ras affects proliferation and survival of cells. […] These morphological changes are consistent with a collapse of the actin cytoskeleton. The dephosphorylation of cofilin activates the actin filament severing activity of this protein. The severing of actin filaments results in the collapse of the actin cytoskeleton. […] Without actin filaments, cells tend to round up and lose attachment to the substrate.

[7] = tested on: phosphorylation of Akt, Mek and Erk in H1975 cells; assay: Western blot of Ras signaling in H1975 cells; format: cell-based; conditions: 10 μM, 10 min
From the text: as §2
(§3) In H1975 the EGFR is also mutated. Certain mutated EGFR cannot be inhibited with Tarceva® due to the resistance conferring T790M mutation which precludes binding of the drug.

[8] = tested on: phosphorylation of Akt, Mek and Erk in H1650 cells; assay: Western blot of Ras signaling in H1650 cells; format: cell-based; conditions: 10 μM, 10 min
From the text: as §2, §3

K-Ras(G12V) = target: T2, K-Ras(G12V) (Homo sapiens, UniProt P01116, G12V); assay: Fluorescence anisotropy (FA) binding of FITC-labeled cyclic peptides to K-Ras; conditions: Table 2; FITC-labeled peptide; read-out: Binding affinity KD
T2 construct: The G12V mutant K-Ras (amino acids 1-185) was recombinantly fused; GST (N, cleaved yes); made in house; host or cells: Escherichia coli BL21
T2 sequence (P01116 1-185 isoform P01116-2 G12V): as above
Method: The 13 hits were resynthesized, labeled with fluorescein isothiocyanate (FITC), purified by HPLC, and tested for binding to K-Ras by fluorescence anisotropy (FA).
For cyclic peptides derived from single library beads (library screening), K-Ras protein (non-GST fusion, 0-20 μM) was incubated with the TMR-labeled peptide (50 or 100 nM) in 20 μL of the blocking buffer for 2.5 h at 24° C. The FA values were measured on a Molecular Devices Spectramax M5 spectrofluorimeter, with excitation and emission wavelengths at 545 and 585 nm, respectively. Equilibrium dissociation constants (KD) were determined by plotting the FA values as a function of K-Ras concentration and fitting the data to the equation
[formula] where Y is the measured anisotropy at a given K-Ras concentration x; L is the peptide concentration; Qb/Qf is the correction fact for dye-protein interaction; Amax is the maximum anisotropy at saturating K-Ras concentration; and Amin is the minimum anisotropy. FA analyses with resynthesized FITC-labeled peptides were similarly carried out, except that the excitation and emission wavelengths were at 494 and 520 nm, respectively.

H1299 lung cancer cells = format: cell-based; conditions: for anti-proliferative activity against lung cancer cells (in words): MTT assay
Method: MTT assays (17) were performed with H1299 lung cancer cells. One hundred μL of H1299 cells (0.5×10^5 cells/mL) were seeded in each well of a 96-well culture plate and allowed to grow overnight in Advanced RPMI medium supplemented with 10% fetal bovine serum (FBS) and 1% penicillin-streptomycin. Varying concentrations of cyclic peptide (0-25 μM) were added to the each well and the cells were incubated at 37° C. with 5% CO2 for 72 hours. Ten μL of a MTT stock solution (Roche) was added into each well. The plate was incubated at 37° C. for 4 h. Then 100 μL of SDS-HCl solubilizing buffer was added into each well, and the resulting solution was mixed thoroughly. The plate was incubated at 37° C. overnight. The absorbance of the formazan product was measured at 570 nm using a Molecular Devices Spectramax M5 plate reader. Each experiment was performed in triplicates and the cells without any peptide added were treated as control.

A549 cells [9] = tested on: A549 cells
[10] = target: maltose-binding protein-XIAP BIR3 domain fusion (Homo sapiens, UniProt P98170); assay: FA binding of FITC-9A5 to control protein MBP-XIAP BIR3
Chain of maltose-binding protein-XIAP BIR3 domain fusion (P98170 241-356 limits assumed): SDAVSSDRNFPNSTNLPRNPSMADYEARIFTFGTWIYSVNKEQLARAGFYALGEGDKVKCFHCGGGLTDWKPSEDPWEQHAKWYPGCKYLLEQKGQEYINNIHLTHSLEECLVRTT

[11] = inhibition of Ras-Raf interaction, read-out: HTRF IC50

CCCC[C@H]1NC(=O)[C@H](Cc2ccc(F)cc2)NC(=O)[C@H](CCCN=C(N)N)NC(=O)C(Cc2ccc3ccccc3c2)NC(=O)[C@H](CCCN=C(N)N)NC(=O)[C@H](CCCN=C(N)N)NC(=O)[C@H](CCC(N)=O)NC(=O)C[C@@H](CCc2ccccc2)NC(=O)C2CCCCN2C(=O)C(=O)C(C)(C)COC1=O (stereo partly drawn) [Compound 12] ([ξPip][dβ3h(hPhe)]QRR[ξ2Nal]R[Phe(4-F)][dNle]; linker N-C via X1)
cellular activity [1]: lacked cellular activity

CCCC[C@H]1NC(=O)[C@H](Cc2ccc(F)cc2)NC(=O)[C@H](CCCNC(=N)N)NC(=O)[C@@H](Cc2ccc3ccccc3c2)NC(=O)[C@H](CCCNC(=N)N)NC(=O)[C@H](CCCNC(=N)N)NC(=O)[C@H](CCCNC(=N)N)NC(=O)[C@@H](C)NC(=O)[C@H]([C@@H](C)O)NC(=O)[C@H](Cc2c[nH]c3ccccc23)NC(=O)[C@H](CCC(N)=O)NC1=O [Cyclorasin 9A5, (Trp-Thr-ala-Arg-Arg-Arg-nal-Arg-Fpa-nle-Gln)] (cyclo(WT[dA]RRR[d2Nal]R[Phe(4-F)][dNle]Q))
Mek, Erk and Akt phosphorylation [2]: significant Mek and Erk phosphorylation remained
cell permeability relative to earlier peptides (A549 cells [3]): improved cell permeability
EGFR phosphorylation level (EGFR phosphorylation): does no affect; also recorded: no effect
basal phosphorylation of Mek and Akt ([4]; H1299 cells unstimulated with EGF, 10 μM for 10 min): inhibited
Mek, Erk and Akt phosphorylation ([4]; H1299 cells, 10 μM, 10 min): almost completely abolished
EGF-induced phosphorylation of Akt and Mek ([4]; H1299 cells, 13 μM, 5 min): significant reduction
phosphorylation level of Erk ([4]; H1299 cells, 13 μM, time course): decreased, but to a lesser extent
EGF-induced phosphorylation of Akt and Mek ([4]; H1299 cells, 13 μM, ≥10 min): completely abolished
IC50 [5]: 0.12 µM
actin filaments in treated cells [6]: absent
Mek, Erk and Akt phosphorylation [7]: almost completely abolished; also recorded: can be inhibited
Mek, Erk and Akt phosphorylation [8]: almost completely abolished; also recorded: can be inhibited

CCCC[C@H]1NC(=O)[C@H](Cc2ccc(F)cc2)NC(=O)[C@H](CCCNC(=N)N)NC(=O)[C@@H](Cc2ccc3ccccc3c2)NC(=O)[C@H](CCCNC(=N)N)NC(=O)[C@H](CCCNC(=N)N)NC(=O)[C@@H](CCCNC(=N)N)NC(=O)[C@@H](C)NC(=O)[C@H]([C@@H](C)O)NC(=O)[C@H](Cc2c[nH]c3ccccc23)NC(=O)[C@H](CCC(N)=O)NC1=O [Cyclorasin 9A6, (Trp-Thr-ala-arg-Arg-Arg-nal-Arg-Fpa-nle-Gln)] (cyclo(WT[dA][dR]RR[d2Nal]R[Phe(4-F)][dNle]Q))
cell permeability relative to earlier peptides (A549 cells [3]): improved cell permeability
IC50 [5]: 0.17 µM

C[C@H]1NC(=O)[C@H](C(C)(C)C)NC(=O)[C@H](Cc2c[nH]c3ccccc23)NC(=O)[C@H](CCC(N)=O)NC(=O)[C@@H](CCCCNC(=O)c2cccc(Br)c2)NC(=O)[C@H](Cc2ccc(F)cc2)NC(=O)[C@H](CCCNC(=N)N)NC(=O)[C@@H](Cc2ccc3ccccc3c2)NC(=O)[C@H](CCCCNC(=S)Nc2ccc3c(c2)C(=O)OC32c3ccc(O)cc3Oc3cc(O)ccc32)NC(=O)[C@H](CCCNC(=N)N)NC(=O)[C@H](CCCNC(=N)N)NC1=O [Cyclorasin 9A36, (Trp-Tle-ala-Arg-Arg-Lys(FITC)-nal-Arg-Fpa-lys(3-bromobenzoyl)-Gln)] (cyclo(K(FITC)[d2Nal]R[Phe(4-F)][dK](Benzoyl(3-Br))QW[Tle][dA]RR))
Kd (K-Ras(G12V)): > 20 µM

CCCC[C@H]1NC(=O)[C@H](CNC(=O)c2cccc(Cl)c2)NC(=O)[C@H](CCCNC(=N)N)NC(=O)[C@@H](Cc2ccc3ccccc3c2)NC(=O)[C@H](CCCNC(=N)N)NC(=O)[C@H](CCCNC(=N)N)NC(=O)[C@H](CCCNC(=N)N)NC(=O)[C@@H](C)NC(=O)[C@H](C(C)(C)C)NC(=O)[C@H](Cc2c[nH]c3ccccc23)NC(=O)[C@H](CCC(N)=O)NC1=O [Cyclorasin 9A44d, (Trp-Tle-ala-Arg-Arg-Arg-nal-Arg-Dap(3-chlorobenzoyl)-nle-Gln)] (cyclo(W[Tle][dA]RRR[d2Nal]R[Dap](Benzoyl(3-Cl))[dNle]Q))
IC50 [5]: 0.049 ± 0.007 µM
IC50 (H1299 lung cancer cells; H1299 cells, MTT, 72 hours, read-out: Anti-proliferative Activity IC50): 14 ± 2 µM

CCCC[C@H]1NC(=O)[C@H](Cc2ccc(F)cc2)NC(=O)[C@H](CCCNC(=N)N)NC(=O)[C@@H](Cc2ccc3ccccc3c2)NC(=O)[C@H](CCCNC(=N)N)NC(=O)[C@H](CCCNC(=N)N)NC(=O)[C@H](CCC(=O)N[C@@H](CCCCNC(=S)Nc2ccc3c(c2)C(=O)OC32c3ccc(O)cc3Oc3cc(O)ccc32)C(N)=O)NC(=O)[C@@H](C)NC(=O)[C@H]([C@@H](C)O)NC(=O)[C@H](Cc2c[nH]c3ccccc23)NC(=O)[C@@H](CO)NC1=O [Cyclorasin 9A, (Arg-Arg-nal-Arg-Fpa-nle-ser-Trp-Thr-ala-Gln)] (cyclo(RR[d2Nal]R[Phe(4-F)][dNle][dS]WT[dA]E(Lys(5-FITC)NH2)))
cell permeability (A549 cells [3]; A549 cells, 10 μM FITC-labeled peptide, 1.5 h): cell permeable
IC50 [5, 11]: 0.65 ± 0.11 µM
anti-proliferative activity against lung cancer cells (in words) (H1299 lung cancer cells): weak

C[C@H]1NC(=O)[C@H](CCCNC(=N)N)NC(=O)[C@H](Cc2c[nH]c3ccccc23)NC(=O)[C@H](CCCNC(=N)N)NC(=O)[C@H](Cc2ccc(F)cc2)NC(=O)[C@H](CCCNC(=N)N)NC(=O)[C@@H](Cc2ccc3ccccc3c2)NC(=O)[C@H](CCCNC(=N)N)NC(=O)[C@H](CCCNC(=N)N)NC(=O)[C@H](CCC(N)=O)NC1=O [Cyclorasin 12A, (Arg-Arg-nal-Arg-Fpa-Arg-Trp-Arg-ala-Gln)] (cyclo(RR[d2Nal]R[Phe(4-F)]RWR[dA]Q); ring closure inferred)
cell permeability (A549 cells [9]): cell permeable
IC50 [5, 11]: 1 µM
anti-proliferative activity against lung cancer cells (in words) (H1299 lung cancer cells): weak

CCCC[C@H]1NC(=O)[C@H](Cc2ccc(F)cc2)NC(=O)[C@H](CCCNC(=N)N)NC(=O)[C@@H](Cc2ccc3ccccc3c2)NC(=O)[C@H](CCCCNC(=S)Nc2ccc3c(c2)C(=O)OC32c3ccc(O)cc3Oc3cc(O)ccc32)NC(=O)[C@H](CCCNC(=N)N)NC(=O)[C@H](CCCNC(=N)N)NC(=O)[C@@H](C)NC(=O)[C@H]([C@@H](C)O)NC(=O)[C@H](Cc2c[nH]c3ccccc23)NC(=O)[C@H](CCC(N)=O)NC1=O [FITC-9A5] (cyclo(K(FITC)[d2Nal]R[Phe(4-F)][dNle]QWT[dA]RR))
Kd [10]: ~30 µM and 30 µM
mean fluorescence intensity relative to FITC-9A54 (FACS) (A549 cells [3]; A549 cells, 10 μM FITC-labeled peptide): ~5 fold
intracellular fluorescence pattern (confocal microscopy) (A549 cells [3]; A549 cells, 10 μM FITC-labeled peptide, 15 min): intense, defuse fluorescence throughout the cytoplasm
